Measured values as given in patent publication US20070244190A1, “Neobritannilactone B and acetyl neobritannilactone B” (priority 2006, published 2007).

Columns and labels:
[1] = system: Bcl-XL in AGS cells; experiment: Western blot of Bcl-XL expression; type: cell-based, human; details: for Bcl-XL expression: various concentrations, 24 hours, FIG. 7A
Experimental: Western Blotting. […] The total proteins were extracted via the addition of 200 μL of gold lysis buffer (50 mM Tris-HCl, pH 7.4; 1 mM NaF; 150 mM NaCl; 1 mM EGTA; 1 mM phenylmethanesulfonyl fluoride; 1% NP-40; and 10 μg/mL leupeptin) to the cell pellets on ice for 30 min, followed by centrifugation at 10,000 g for 30 min at 4° C. The cytosolic fraction (supernatant) proteins were measured by Bio-Rad protein assay (Bio-Rad Laboratories, Munich, Germany). The samples (50 μg of protein) were mixed with 5× sample buffer containing 0.3 M Tris-HCl (pH 6.8), 25% 2-mercaptoethanol, 12% sodium dodecyl sulfate (SDS), 25 mM EDTA, 20% glycerol, and 0.1% bromophenol blue. The mixtures were boiled at 100° C. for 5 min and were subjected to 12% SDS-polyacrylamide minigels at a constant current of 20 mA. Subsequently, electrophoresis was ordinarily carried out on SDS-polyacrylamide gels. For electrophoresis, proteins on the gel were electrotransferred onto an immobile membrane (PVDF; Millipore Corp., Bedford, Mass.) with transfer buffer composed of 25 mM Tris-HCl (pH 8.9), 192 mM glycine, and 20% methanol. The membranes were blocked with blocking solution containing 20 mM Tris-HCl and then immunoblotted with primary antibodies including, anti-Bcl-XL, anti-β-actin (Transduction Laboratory, Lexington, Ky.), anti-PARP (UBI, Inc., Lake Placid, N.Y.), at room temperature for 1 h. Detection was achieved by measuring the chemiluminescence of blotting agent (ECL, Amersham Corp., Arlington Heights, Ill.), after exposure of the filters to KODAK X-OMAT films.
Several gene products are known to be important in controlling the apoptotic process. The imbalance of expression of anti- and pro-apoptotic proteins after a stimulus is one of the major mechanisms underlying the ultimate fate of cells in the apoptotic process. Bcl-XL expression in tumor cells, for instance, confers resistance against chemotherapeutic drugs. The expression of anti-apoptotic protein Bcl-XL was therefore examined in cancer cells treated with various concentrations of NAB or ANAB for 24 hours. […] FIG. 7A. […] FIG. 7B.

[2] = system: COLO 205 cells; experiment: Cell viability, trypan blue exclusion, 24 h; type: cell-based; details: COLO 205, 24 h, mean ± SE, n=3, read-out: IC50, growth of human cancer cells
Experimental: (§1) Cell Culture and Chemicals. The COLO 205 and HT 29 cell lines were isolated from human colon adenocarcinoma (ATCC CCL-222 and HTB-38); human promyelocytic leukemia (HL-60) cells were obtained from American Type Culture Collection (Rockville, Md.). The human AGS gastric carcinoma cell lines (CCRC 60102) were obtained from the Food Industry Research and Development Institute (Hsinchu, Taiwan). Cell lines were grown at 37° C. in 5% CO2 dioxide atmosphere in RPMI for COLO 205, HT-29, and HL-60 cells and DMEM/F12 for AGS cells, all supplemented with 10% heat-inactivated fetal bovine serum (GIBCO BRL, Grand Island, N.Y.) (100 units/mL of penicillin, 100 μg/mL of streptomycin), and 2 mM L-glutamine (GIBCO BRL). Selected compounds were dissolved in dimethyl sulfoxide (DMSO). Propidium iodide was obtained from Sigma Chemical Co. (St. Louis, Mo.).
(§2) Determination of Cell Viability. Human cancer cells were treated either with DMSO (0.01%) or the selected compounds (5-100 μM). Cell viability was determined at 24 h based on trypan blue exclusion assay. The viability percentage was calculated based on the percentage of unstained cells. Suspensions of cells were diluted 1:1 with 0.5% trypan blue solution. Stained and unstained cells were counted in a hemocytometer.

[3] = system: AGS cells; experiment: Cell viability, trypan blue exclusion, 24 h; type: cell-based; details: mean ± SE, n=3, read-out: IC50, growth of human cancer cells
Experimental: as §1, §2

[4] = system: human AGS gastric carcinoma cell lines; experiment: Cell survival assay (Example 3), trypan blue exclusion; type: cell-based; details: 24 h treatment, Example 3, FIG. 2, read-out: IC50, cell viability
Experimental: Cell Survival Assay. The human AGS gastric carcinoma cell lines (CCRC 60102) were maintained as described in Section 8.2 above. For assays, cells (5×10^4) were plated in 35-mm Petri dishes. The next day, the medium was changed and NAB and ANAB were added. Control cells were treated with DMSO to a final concentration of 0.05% (v/v). At the end of incubation, cells were harvested for cell count using a hemocytometer.
To test the effects of NAB and ANAB on cell viability, human gastric carcinoma cells were treated with different concentrations of NAB and ANAB. After 24 h treatment, the number of live cells was determined by trypan blue exclusion assay. FIG. 2. Both compounds were potent inhibitors of cell viability.

[5] = system: poly-(ADP-ribose) polymerase (PARP) in AGS cells; experiment: Western blot of PARP cleavage; type: cell-based, human; details: for PARP cleavage (85-kDa fragment): AGS cells treated for 24, FIG. 6A
Experimental: Western Blotting. The nuclear and cytosolic proteins were isolated from AGS cells after treatment with 60 μM for 0, 3, 6, 9, 12, 18, and 24 h. The total proteins were extracted via the addition of 200 μL of gold lysis buffer (50 mM Tris-HCl, pH 7.4; 1 mM NaF; 150 mM NaCl; 1 mM EGTA; 1 mM phenylmethanesulfonyl fluoride; 1% NP-40; and 10 μg/mL leupeptin) to the cell pellets on ice for 30 min, followed by centrifugation at 10,000 g for 30 min at 4° C. The cytosolic fraction (supernatant) proteins were measured by Bio-Rad protein assay (Bio-Rad Laboratories, Munich, Germany). The samples (50 μg of protein) were mixed with 5× sample buffer containing 0.3 M Tris-HCl (pH 6.8), 25% 2-mercaptoethanol, 12% sodium dodecyl sulfate (SDS), 25 mM EDTA, 20% glycerol, and 0.1% bromophenol blue. The mixtures were boiled at 100° C. for 5 min and were subjected to 12% SDS-polyacrylamide minigels at a constant current of 20 mA. Subsequently, electrophoresis was ordinarily carried out on SDS-polyacrylamide gels. For electrophoresis, proteins on the gel were electrotransferred onto an immobile membrane (PVDF; Millipore Corp., Bedford, Mass.) with transfer buffer composed of 25 mM Tris-HCl (pH 8.9), 192 mM glycine, and 20% methanol. The membranes were blocked with blocking solution containing 20 mM Tris-HCl and then immunoblotted with primary antibodies including, anti-Bcl-XL, anti-β-actin (Transduction Laboratory, Lexington, Ky.), anti-PARP (UBI, Inc., Lake Placid, N.Y.), at room temperature for 1 h. Detection was achieved by measuring the chemiluminescence of blotting agent (ECL, Amersham Corp., Arlington Heights, Ill.), after exposure of the filters to KODAK X-OMAT films.
Activation of caspase-3 leads to the cleavage of a number of proteins, one of which is poly-(ADP-ribose) polymerase (PARP). A hallmark of apoptosis is that PARP (116 kDa) is cleaved to produce an 85-kDa fragment. PARP cleavage was examined in cells treated with NAB or ANAB for 24.

For `C=C1C(=O)OC2C=C(C)CCC=C(C)CC(O)C12` (stereo not drawn) [Compound 3, 4-hydroxy-3α,4,5,8,9,11α-hexahydro-6,10-dimethyl-3-methylene-cyclodeca[b]furan-2(3H)-one], the Bcl-XL expression [1] was “dose-dependent decrease of Bcl-XL”, the IC50 [2] was 14.3 µM and the IC50 [3] was 21.4 µM. For the same compound, the IC50 [4] was 7.6 µM and the “PARP cleavage (85-kDa fragment)” value [5] was “PARP proteolytic fragment was found”.
For `C=C1C(=O)O[C@H]2/C=C(\C)CC/C=C(\C)C[C@H](OC(C)=O)[C@@H]12` [Compound 4, acetyl neobritannilactone B], the “Bcl-XL expression over time” value ([1]; at 12 h, 15 μM, FIG. 7B) was “marked and significant change in the expression of Bcl-XL”, the Bcl-XL expression [1] was “dose-dependent decrease of Bcl-XL” and the IC50 [2] was 14.7 µM. The IC50 [3] was 5.4 µM, the IC50 [4] was 4.2 µM and the “PARP cleavage over time” value ([5]; 15 μM, time course, FIG. 6B) was “time-dependent proteolytic cleavage of PARP”. The “PARP cleavage (85-kDa fragment)” value [5] was “PARP proteolytic fragment was found”.
